Data from US20260013504A1, “HERBICIDAL MIXTURE, HERBICIDAL COMPOSITION, METHOD, USE, AND KITS FOR CONTROLLING UNDESIRABLE VEGETATION” (ADAMA AGAN LTD., priority 2022, published 2026).

Legend:
Format in all cases: in vivo
[1] = system: Lithospermum arvense; test: Pot experiment, soil treatment, control of Lithospermum arvense (fresh weight, Colby)
Method: (§1) Referring to an article of Colby, S. R. i.e., Calculation of the synergistic and antagonistic response of herbicide combinations.
(§2) E0-E value is calculated to evaluate the combined effect of pyroxasulfone and the second herbicide selected from the group consisting of fluorochloridone, aclonifen, diflufenican and terbutryn on the selected weeds.
(§3) In this Example, the herbicidal activity of treatments by a mixture of pyroxasulfone and the second herbicide selected from the group consisting of fluorochloridone, aclonifen, diflufenican and terbutryn for controlling Aegilops tauschii was investigated by a pot experiment. This Example was carried out in accordance with “NY/T 1155.4-2006 Guidelines for Indoor Bioassay Tests of Pesticides, Herbicides Part 4: Activity Determination Tests, Stem and Leaf Spray Method”. • Source of the agrochemicals tested were: • Pyroxasulfone: pyroxasulfone (850g/Kg, WG) from Adama Agan LTD. • Fluorochloridone: fluorochloridone (250 g/L, EC) from Adama Agan LTD. • Aclonifen: aclonifen (600 g/L, SC) from Adama Agan LTD. • Diflufenican: diflufenican (50g/Kg, WP) from Bayer. • Terbutryn: terbutryn (50g/Kg, SC) from Zhejiang Zhongshan Chemical Industry Group Co., Ltd. • Cultivation of test materials: The test soil was formed by mixing the 20 cm layer loam on the ground surface and the culture medium in a ratio of 3:1 as cultivation soil. Weeds were cultivated in an artificial climate chamber. The daytime and nighttime temperatures were set at 22° C. and 19° C., respectively, and the illumination was set at daytime: dark time 12h: 12h.
(§4) A certain amount of Aegilops tauschii seeds were sown in a plastic pot with a diameter of 9 cm, covering with 1-2 mm soil, and putting them in an enamel dish filled with water. The bottom infiltration method was used to water them, the agrochemicals tested in this Example were applied on the second day after sowing Aegilops tauschii seeds.
(§5) Spraying treatment: ASS-4 automatic control spraying system with a fan-shaped nozzle was used indoors to spray the agrochemicals, the running speed was adjusted based on nozzle pressure, flow rate, etc. to spray 50 mL of liquid of agrochemicals on the actual spray area of 1.1 m2 (equivalent to 30 liters per mu), arranging the plastic pots to be processed on the spraying table evenly, and spraying evenly. The spraying pressure was 0.35 MPa, and the flow rate of the fan-shaped nozzle was 800 mL/min, spraying in order from low dosage to high dosage. Each treatment was repeated 3 times. After spraying, the plastic pots were dried for one day, placed in an artificial climate chamber, and watered regularly to keep moist.
(§6) Weed investigation method and time: after applying the agrochemicals, the symptoms of weed damage (such as growth inhibition, chlorosis, deformity, etc.) were recorded in detail. After 35 days, the fresh weight of aerial part of the weeds in each treatment was weighed, and the measured fresh weight inhibition rate and the measured fresh weight survival rate for each treatment were calculated according to the following equations: […]
Example 5 was conducted substantially the same way as Example 1, except that Lithospermum arvense was used instead of Aegilops tauschii.

[2] = system: Galium aparine; test: Pot experiment, soil treatment, control of Galium aparine (fresh weight, Colby)
Method: as §1, §2, §3, §4, §5, §6
Example 4 was conducted substantially the same way as Example 1, except that Galium aparine was used instead of Aegilops tauschii.

[3] = system: Aegilops tauschii; test: Pot experiment, soil treatment, control of Aegilops tauschii (fresh weight, Colby); details: mixtures: both AIs at these rates, after 35 days
Excerpt: as §1
E0 is the theoretical fresh weight survival rate for the mixture of pyroxasulfone and the second herbicide selected from the group consisting of fluorochloridone, aclonifen, diflufenican and terbutryn;
X is the measured fresh weight survival rate for pyroxasulfone used alone at the same dosage as that in the mixture;
Y is the measured fresh weight survival rate for the second herbicide selected from the group consisting of fluorochloridone, aclonifen, diflufenican and terbutryn used alone at the same dosage as that in the mixture;
E is the measured fresh weight survival rate for the mixture of pyroxasulfone and the second herbicide selected from the group consisting of fluorochloridone, aclonifen, diflufenican and terbutryn.
as §2, §3, §4, §5, §6

[4] = system: Solanum nigrum; test: Pot experiment (glass greenhouse), soil treatment, control of Solanum nigrum (fresh weight, Colby)
Method: as §1, §2, §3, §4, §5, §6
Example 6 was substantially conducted in the same as Example 1, except that (1) Solanum nigrum was used instead of Aegilops tauschii, (2) in “Cultivation of test materials” part, Solanum nigrum was cultivated in a glass greenhouse instead of an artificial climate chamber at a temperature of 25 to 33° C. with a natural illumination, and (3) in “Spraying treatment” part, after spraying and drying, the plastic pots were placed in a glass greenhouse instead of an artificial climate chamber.

[5] = system: Lolium multiflorum Lamk; test: Pot experiment, soil treatment, control of Lolium multiflorum Lamk (fresh weight, Colby); details: mixtures: both AIs at these rates, after 35 days
Method: as §1, §2, §3, §4, §5, §6
Example 2 was conducted in substantially the same way as Example 1, except that Lolium multiflorum Lamk was used instead of Aegilops tauschii.

[6] = system: Bromus japonicus; test: Pot experiment, soil treatment, control of Bromus japonicus (fresh weight, Colby); details: mixtures: both AIs at these rates, after 35 days
Method: as §1, §2, §3, §4, §5, §6
Example 3 was conducted in substantially the same way as Example 1, except that Bromus japonicus was used instead of Aegilops tauschii.

[7] = g ai/ha: pyroxasulfone 11.25, fluorochloridone 31.25, aclonifen 150, diflufenican 14.0625, terbutryn 140.625
[8] = g ai/ha: pyroxasulfone 22.5, fluorochloridone 62.5, aclonifen 300, diflufenican 28.125, terbutryn 281.25
[9] = g ai/ha: pyroxasulfone 45, fluorochloridone 125, aclonifen 600, diflufenican 56.25, terbutryn 562.5
[10] = g ai/ha: pyroxasulfone 90, fluorochloridone 250, aclonifen 1200, diflufenican 112.5, terbutryn 1125
[11] = g ai/ha: pyroxasulfone 180, fluorochloridone 500, aclonifen 2400, diflufenican 225, terbutryn 2250
[12] = g ai/ha: pyroxasulfone 360, fluorochloridone 1000, aclonifen 4800, diflufenican 450, terbutryn 4500

CCNc1nc(NC(C)(C)C)nc(SC)n1 [terbutryn, N-(1,1-dimethylethyl)-N′-ethyl-6-(methylthio)-1,3,5-triazine-2,4-diamine]
Measured fresh weight survival rate (%) - E ([1]; 140.625 g ai/ha): 1.4% | Measured fresh weight survival rate (%) - E ([1]; 281.25 g ai/ha): 1.4% | Measured fresh weight survival rate (%) - E ([1]; 562.5 g ai/ha): 0.0% | Measured fresh weight survival rate (%) - E ([1]; 1125 g ai/ha): 0.0% | Measured fresh weight survival rate (%) - E ([1]; 2250 g ai/ha): 0.0% | inhibition at 140.625 g/ha ([1]; Buglossoides arvensis, soil, 140.625 g ai/ha, read-out: Measured fresh weight inhibition rate (%)): 98.6% | inhibition at 281.25 g/ha ([1]; Buglossoides arvensis, soil, 281.25 g ai/ha, read-out: Measured fresh weight inhibition rate (%)): 98.6% | inhibition at 562.5 g/ha ([1]; Buglossoides arvensis, soil, 562.5 g ai/ha, read-out: Measured fresh weight inhibition rate (%)): 100% | inhibition at 1125 g/ha ([1]; Buglossoides arvensis, soil, 1125 g ai/ha, read-out: Measured fresh weight inhibition rate (%)): 100% | inhibition at 2250 g/ha ([1]; Buglossoides arvensis, soil, 2250 g ai/ha, read-out: Measured fresh weight inhibition rate (%)): 100% | Measured fresh weight survival rate (%) - E ([2]; 140.625 g ai/ha): 80.8% | Measured fresh weight survival rate (%) - E ([2]; 281.25 g ai/ha): 53.4% | Measured fresh weight survival rate (%) - E ([2]; 562.5 g ai/ha): 9.6% | Measured fresh weight survival rate (%) - E ([2]; 1125 g ai/ha): 8.2% | Measured fresh weight survival rate (%) - E ([2]; 2250 g ai/ha): 0.0% | inhibition at 140.625 g/ha ([2]; Galium aparine, soil, 140.625 g ai/ha, read-out: Measured fresh weight inhibition rate (%)): 19.2% | inhibition at 281.25 g/ha ([2]; Galium aparine, soil, 281.25 g ai/ha, read-out: Measured fresh weight inhibition rate (%)): 46.6% | inhibition at 562.5 g/ha ([2]; Galium aparine, soil, 562.5 g ai/ha, read-out: Measured fresh weight inhibition rate (%)): 90.4% | inhibition at 1125 g/ha ([2]; Galium aparine, soil, 1125 g ai/ha, read-out: Measured fresh weight inhibition rate (%)): 91.8% | inhibition at 2250 g/ha ([2]; Galium aparine, soil, 2250 g ai/ha, read-out: Measured fresh weight inhibition rate (%)): 100% | Measured fresh weight inhibition rate (%) [3, 7]: 8.5% | Measured fresh weight survival rate (%) - E [3, 7]: 91.5% | Measured fresh weight inhibition rate (%) [3, 8]: 12.8% | Measured fresh weight survival rate (%) - E [3, 8]: 87.2% | Measured fresh weight inhibition rate (%) [3, 9]: 46.3% | Measured fresh weight survival rate (%) - E [3, 9]: 53.7% | Measured fresh weight inhibition rate (%) [3, 10]: 97.6% | Measured fresh weight survival rate (%) - E [3, 10]: 2.4% | Measured fresh weight inhibition rate (%) [3, 11]: 96.3% | Measured fresh weight survival rate (%) - E [3, 11]: 3.7% | Measured fresh weight inhibition rate (%) [3, 12]: 100.0% | Measured fresh weight survival rate (%) - E [3, 12]: 0.0% | Measured fresh weight survival rate (%) - E ([4]; 140.625 g ai/ha): 57.6% | Measured fresh weight survival rate (%) - E ([4]; 281.25 g ai/ha): 36.1% | Measured fresh weight survival rate (%) - E ([4]; 562.5 g ai/ha): 0.4% | Measured fresh weight survival rate (%) - E ([4]; 1125 g ai/ha): 0.0% | Measured fresh weight survival rate (%) - E ([4]; 2250 g ai/ha): 0.0% | inhibition at 140.625 g/ha ([4]; Solanum nigrum, soil, 140.625 g ai/ha, read-out: Measured fresh weight inhibition rate (%)): 42.4% | inhibition at 281.25 g/ha ([4]; Solanum nigrum, soil, 281.25 g ai/ha, read-out: Measured fresh weight inhibition rate (%)): 63.9% | inhibition at 562.5 g/ha ([4]; Solanum nigrum, soil, 562.5 g ai/ha, read-out: Measured fresh weight inhibition rate (%)): 99.6% | inhibition at 1125 g/ha ([4]; Solanum nigrum, soil, 1125 g ai/ha, read-out: Measured fresh weight inhibition rate (%)): 100% | inhibition at 2250 g/ha ([4]; Solanum nigrum, soil, 2250 g ai/ha, read-out: Measured fresh weight inhibition rate (%)): 100% | Measured fresh weight inhibition rate (%) [5, 7]: 94.3% | Measured fresh weight survival rate (%) - E [5, 7]: 5.7% | Measured fresh weight inhibition rate (%) [5, 8]: 94.8% | Measured fresh weight survival rate (%) - E [5, 8]: 5.2% | Measured fresh weight inhibition rate (%) [5, 9]: 100.0% | Measured fresh weight survival rate (%) - E [5, 9]: 0.0% | Measured fresh weight inhibition rate (%) [5, 10]: 100.0% | Measured fresh weight survival rate (%) - E [5, 10]: 0.0% | Measured fresh weight inhibition rate (%) [5, 11]: 100.0% | Measured fresh weight survival rate (%) - E [5, 11]: 0.0% | Measured fresh weight inhibition rate (%) [5, 12]: 100.0% | Measured fresh weight survival rate (%) - E [5, 12]: 0.0% | Measured fresh weight inhibition rate (%) [6, 7]: 100.0% | Measured fresh weight survival rate (%) - E [6, 7]: 0.0% | Measured fresh weight inhibition rate (%) [6, 8]: 100.0% | Measured fresh weight survival rate (%) - E [6, 8]: 0.0% | Measured fresh weight inhibition rate (%) [6, 9]: 100.0% | Measured fresh weight survival rate (%) - E [6, 9]: 0.0% | Measured fresh weight inhibition rate (%) [6, 10]: 100.0% | Measured fresh weight survival rate (%) - E [6, 10]: 0.0% | Measured fresh weight inhibition rate (%) [6, 11]: 100.0% | Measured fresh weight survival rate (%) - E [6, 11]: 0.0%
